From paper PMC7181660, “A novel specific PERK activator reduces toxicity and extends survival in Huntington's disease models” (Scientific Reports, 2020)

How the values were obtained:
R6/2 HD mouse model [1] = test: Rotarod test; format: in vivo, mice; conditions: 1 mg/kg subcutaneous 28 days
Description: Motor activity was assessed by the rotarod test (San Diego Instruments, CA, USA) (0–25 RPM). Relative slow acceleration was used to discriminate small differences between groups particularly at advanced stages of the disease. All mice were trained together before any experimental procedure was performed to set a common baseline. They were required to stay at least 2 minutes without falling in order to participate in the study. R6/2 mice and control littermates were tested every week after pump transplantation. Each test consisted of 3 consecutive measurements of 5 minutes with inter-trial recess of 5 minutes. The latency to fall was recorded and the best performance of the three trials was considered for the analysis.

R6/2 HD mouse model [2] = test: Combined phenotype score (hind limb clasping, ledge, gait, kyphosis); format: in vivo, mice; conditions: R6/2 TG, 1 mg/kg subcutaneous 28 days
Description: […]. Measures include hind limb clasping, ledge test, gait and kyphosis. See detailed information in Supplementary methods.
Group # Animals # Treatment Volume bleeding and
Determination of MK-28 levels in the plasma and brain were performed by LC/MS/MS using
generic methods in the bioanalytical lab of WuXi AppTec Co., Ltd. (Shanghai, China). The
MK-28 concentrations were determined in the plasma and whole perfused brain tissues of the
animals following a single IP injection of 10 mg/kg.
Combined phenotype: A method assessing a combination of different disease -phenotypes
was used to evaluate disease progression. Phenotypic evaluation includes hind-limb
clasping, ledge test, gait and kyphosis. Limb clasping: hind-limb clasping behavior was
evaluated and different scores were given based on their performance on a scale from 0 to 3: 0
= normal; 1 = clasps hind-limb s within 30s of being suspended in the air; 2 = cla sps hind-limb s
within 5s, recovering when released after 30s; 3 = clasps hind-limbs within 5s and has difficulty
recovering when released after 30s. Ledge test: The ledge test evaluates motor coordination by
placing mice on the ledge of the cage. Typically, mice will walk along the ledge and attempt
to descend back into the cage. Walking without losing balance is considered normal and
assigned a score of 0. A score of 1 is given if the mouse misse s its footing while walking. If […]

EIF2AK4 (GCN2) = EIF2AK4 (GCN2) (Homo sapiens, UniProt Q9P2K8); test: In vitro HotSpot kinase assay on GCN2; format: biochemical; conditions: plateau considered reached at 10 µM; read-out: EC50 of GCN2 activation
Description: In vitro kinase assays with purified components and full kinase panel analysis was done at Reaction Biology Corp. (Malvern, PA, USA) using the HotSpot Kinase Assay. Reactions were performed for 20 min at room temp. using ^33P-ATP (Specific activity 10 μCi/μl) with 1 μM total ATP, 20 μM substrate and kinases in the nanomolar range in 20 mM Hepes (pH 7.5), 10 mM MgCl2, 1 mM EGTA, 0.02% Brij35, 0.02 mg/ml BSA, 0.1 mM Na3VO4, 2 mM DTT, 1% DMSO and other required factors depending on the assayed kinase. […]
was calculated from the data in Fig. 3. Note that for the calculation for GCN2, we considered […]
Suppl. Fig. S3. Modulation of PERK by A4. A4 was tested for its effect on isolated PERK in vitro, showing a weak activating effect in the nanomolar range. (performed at Reaction Biology Corp. using the HotSpot Kinase Assay).
(§1) (1 picture or pasted object on this page, not shown here)

R6/2 HD mouse model [3] = test: Survival of R6/2 mice; format: in vivo
Description: All experimental procedures were approved by and conducted in strict compliance with the Institutional Animal Care and Use Committee of Tel Aviv University. Mice were kept in a 12/12-hour light/dark cycle with food and water ad libitum. […]. At three weeks mice were assessed for CAG repeat size using the following primer set: 5’-[…]-3′ and 5′-[…] G-3′. Following Jackson laboratories guidelines, wild type (WT) and TG littermates were kept combined in the same minimally-enriched cages (with cardboard rolls and gauze pads), and after week 8 water and mushed food were placed at the ground level for all the cages. Male mice treatment groups were coded and remained blind to the observers throughout the experiment. Power calculations determined that 16 mice per group was the minimum required to see at least a 20% increase (alpha 0.05, beta 0.2, power 80%) in motor performance and survival of R6/2 mice with MK-28 subcutaneous delivery compared to vehicle. Multiple endpoints were prospectively selected, consistent with the analyses we here report. Data collection was ended before signs of animal suffering or inability to thrive appear.
Alzet pumps model 1004 (Alzet, USA), with a rate of 0.11 µl/hour and 28 days effective compound delivery was used. MK-28 compound was dissolved in 1:1 DMSO/PEG400 and prepared to delivery subcutaneously 6 mg/kg MK-28 for toxicity studies (n = 8) or 1 mg/kg for therapeutic evaluation in R6/2 mice (n = 72). For toxicity studies mice receiving six times the therapeutic dose of MK-28 or vehicle were weighed every two days for two consecutive weeks. […]. Alzet pumps were implanted in 4 weeks old mice and MK-28 was administered at 1 mg/kg with continuous dosing for 28 days. […]

HMOX1 mRNA = HMOX1 mRNA (downstream target of NRF2-P) by qPCR; format: cell-based, murine; conditions: STHdh^Q7/7 and STHdh^Q111/111 cells
Description: Total cell RNA was extracted with TRIzol reagent (Invitrogen) according to the manufacturer's instructions. Reverse transcription (RT) was performed with QuantaBio qScript cDNA synthesis kit. Real-time qPCR was carried out using a CFX Connect Real-Time PCR Detection System (BioRad) and the amplifications were done using the SYBR Green PCR Master Mix (pcrbio). Reactions were run in triplicates in three independent experiments. Housekeeping gene GAPDH was used as an internal control to normalize the variability of expression levels.
Suppl. Fig. S5. NRF2 activation but not involvement in cell protection by MK-28. A)
Scheme of NRF2 activation by PERK. B) qPCR of HMOX1, a downstream target of NR F2.
Medians +- interquartile range of 3 independent experiments . P values of STHdhQ7/7 MK 5µM […]
presence of Tun and the indicated concentrations of MK-28, plus increasing concentrations of the NRF2 inhibitor ML385. Average of 3 independent experiments +-SD. D) Apoptosis of STHdhQ111/111 cells treated only with increasing concentrations of ML385. Average of 3 independent experiments +-SD.
as §1

[4] = R6/2 TG, 1 mg/kg subcutaneous 28 days

EIF2AK4 (GCN2), sequence (Q9P2K8 whole entry): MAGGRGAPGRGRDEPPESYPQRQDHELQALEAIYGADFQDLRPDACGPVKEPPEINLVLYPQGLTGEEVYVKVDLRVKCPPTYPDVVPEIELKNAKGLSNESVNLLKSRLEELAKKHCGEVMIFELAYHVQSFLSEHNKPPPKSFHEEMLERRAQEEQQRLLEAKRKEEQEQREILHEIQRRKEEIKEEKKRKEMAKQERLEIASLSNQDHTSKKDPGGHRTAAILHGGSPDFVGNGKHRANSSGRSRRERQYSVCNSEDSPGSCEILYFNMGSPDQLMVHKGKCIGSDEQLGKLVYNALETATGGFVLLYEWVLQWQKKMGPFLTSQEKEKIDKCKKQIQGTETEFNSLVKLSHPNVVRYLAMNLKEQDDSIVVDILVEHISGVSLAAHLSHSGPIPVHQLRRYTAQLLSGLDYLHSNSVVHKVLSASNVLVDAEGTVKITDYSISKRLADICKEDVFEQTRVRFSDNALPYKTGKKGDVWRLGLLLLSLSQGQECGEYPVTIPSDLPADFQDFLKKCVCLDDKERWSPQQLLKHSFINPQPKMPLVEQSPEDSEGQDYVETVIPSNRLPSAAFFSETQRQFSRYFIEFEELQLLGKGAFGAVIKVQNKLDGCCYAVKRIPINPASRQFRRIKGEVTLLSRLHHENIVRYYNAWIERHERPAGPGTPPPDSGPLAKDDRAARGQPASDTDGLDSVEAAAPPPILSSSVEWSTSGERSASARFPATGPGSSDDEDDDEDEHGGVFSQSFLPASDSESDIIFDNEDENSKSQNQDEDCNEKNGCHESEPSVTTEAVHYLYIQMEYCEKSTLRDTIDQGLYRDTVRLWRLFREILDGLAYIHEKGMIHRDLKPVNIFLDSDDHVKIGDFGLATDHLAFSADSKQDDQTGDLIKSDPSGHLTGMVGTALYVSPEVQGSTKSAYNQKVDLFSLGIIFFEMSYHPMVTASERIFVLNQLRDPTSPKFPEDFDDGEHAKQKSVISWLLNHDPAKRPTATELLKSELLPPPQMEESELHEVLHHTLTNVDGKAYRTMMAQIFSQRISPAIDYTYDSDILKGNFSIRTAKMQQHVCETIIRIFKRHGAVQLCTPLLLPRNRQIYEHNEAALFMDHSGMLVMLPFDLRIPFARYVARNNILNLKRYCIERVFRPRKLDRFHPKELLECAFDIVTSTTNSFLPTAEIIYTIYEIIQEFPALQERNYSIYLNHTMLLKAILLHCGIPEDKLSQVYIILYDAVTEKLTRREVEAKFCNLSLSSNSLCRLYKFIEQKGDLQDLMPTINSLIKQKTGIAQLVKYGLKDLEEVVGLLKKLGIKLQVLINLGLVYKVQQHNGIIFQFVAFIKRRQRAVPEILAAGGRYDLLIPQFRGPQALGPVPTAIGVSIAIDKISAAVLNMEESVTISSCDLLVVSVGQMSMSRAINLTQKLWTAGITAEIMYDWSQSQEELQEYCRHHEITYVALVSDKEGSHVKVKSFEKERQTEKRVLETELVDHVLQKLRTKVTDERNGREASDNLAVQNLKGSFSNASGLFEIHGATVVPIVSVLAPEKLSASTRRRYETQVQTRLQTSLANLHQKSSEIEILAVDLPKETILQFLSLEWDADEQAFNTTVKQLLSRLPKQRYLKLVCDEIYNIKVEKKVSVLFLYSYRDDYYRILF

## CN(/N=C\c1ccc(O)c(O)c1)c1nc(-c2ccccc2)cc(-c2ccccc2)n1 [MK-28]
R6/2 HD mouse model [1]; R6/2 TG, week 4
  motor performance (rotarod) of TG mice vs untreated TG: significant improvements in motor performance
R6/2 HD mouse model [1]; WT mice
  motor performance (rotarod) of WT animals: no compromised motor performance
R6/2 HD mouse model [2]; week 6
  composite phenotype score: 3.14 ± 1.41
R6/2 HD mouse model [2]; week 8
  composite phenotype score: 4.4 ± 0.55
EIF2AK4 (GCN2)
  EC50: 3.5 µM
R6/2 HD mouse model [3]; 28-day treatment in young R6/2 mice
  extension of median survival and death initiation: 10%
R6/2 HD mouse model [3]; 95% CI 0.7726 to 4.611
  survival curve ratio (Gehan-Breslow-Wilcoxon test): 1.887
R6/2 HD mouse model [3]; [4]
  delay of death initiation: 10 days
  increase of median survival compared to controls: 8 days
  median survival: 97 days
HMOX1 mRNA
  HMOX1 mRNA levels: upregulation
